Data published in ChEMBL document CHEMBL1201862, “PubChem BioAssay data set” (2004).
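Tested at 5 concentrations; 48 h exposure; 96-well plates; endpoints linearly interpolated, else capped at highest concentration. GI50: concentration for 50% inhibition of growth.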 Calls of active or inactive are those of the source. No stated cut-off is given here; in the data, active = GI50 up to about 1.1 µM and inactive = higher.

Key:
Assay in all cases: NCI anticancer screen, dose series, 48 h
RXF 393 = tested on: RXF 393
DMS-273 = tested on: DMS-273
RPMI-8226 = tested on: RPMI-8226
SK-MEL-28 = tested on: SK-MEL-28
NCI-H23 = tested on: NCI-H23
SF-268 = tested on: SF-268
DLD-1 = tested on: DLD-1
XF498 = tested on: XF498
DMS-114 = tested on: DMS-114
NCI-H460 = tested on: NCI-H460
UACC-257 = tested on: UACC-257
LXFL 529 = tested on: LXFL 529
EKVX = tested on: EKVX
HOP-18 = tested on: HOP-18
HCT-15 = tested on: HCT-15
HCT-116 = tested on: HCT-116
T47D = tested on: T47D
BT-549 = tested on: BT-549
PC-3 = tested on: PC-3
Hs-578T = tested on: Hs-578T

For `CC(SC1=CC(=O)c2c(O)ccc(O)c2C1=O)C(=O)O` (centres undefined), which GI50 (RXF 393) is on record?
The GI50 was > 48.4 µM (inactive).

And the GI50 (DMS-273)?
Its GI50 is > 60.4 µM (inactive).

And the GI50 (RPMI-8226)?
The GI50 was > 52.8 µM (inactive).

And the GI50 (SK-MEL-28)?
The GI50 was > 55.1 µM (inactive).

And the GI50 (NCI-H23)?
The GI50 was > 56.4 µM (inactive).

And the GI50 (SF-268)?
The GI50 was 48 µM (inactive).

What about the GI50 (DLD-1) of the same molecule?
Its GI50 is > 39.8 µM (inactive).

And the GI50 (XF498)?
The GI50 was > 49.9 µM (inactive).

What about the GI50 (DMS-114) of the same molecule?
Its GI50 is 19.5 µM (inactive).

And the GI50 (NCI-H460)?
The GI50 was > 100 µM (inactive).

And the GI50 (UACC-257)?
The GI50 was 35.5 µM (inactive).

What about the GI50 (LXFL 529) of the same molecule?
The GI50 was > 35.5 µM (inactive).

What about the GI50 (EKVX) of the same molecule?
The GI50 was > 100 µM (inactive).

What about the GI50 (HOP-18) of the same molecule?
Its GI50 is > 55.3 µM (inactive).

What about the GI50 (HCT-15) of the same molecule?
The GI50 was > 37 µM.

What about the GI50 (HCT-116) of the same molecule?
Its GI50 is 31.2 µM (inactive).

Which results are given for `CC1NC(=O)C2=C1C(N)=NC(=O)C2` (centres undefined)?
GI50 (RXF 393): > 100 µM (inactive); GI50 (DMS-273): > 100 µM (inactive); GI50 (RPMI-8226): > 100 µM (inactive); GI50 (SK-MEL-28): > 100 µM (inactive); GI50 (NCI-H23): > 100 µM (inactive); GI50 (SF-268): > 100 µM (inactive); GI50 (DLD-1): > 100 µM (inactive); GI50 (XF498): > 100 µM (inactive); GI50 (DMS-114): > 100 µM (inactive); GI50 (NCI-H460): > 100 µM (inactive); GI50 (UACC-257): > 100 µM (inactive); GI50 (LXFL 529): > 100 µM (inactive); GI50 (EKVX): > 100 µM (inactive); GI50 (HOP-18): > 100 µM (inactive); GI50 (HCT-15): > 100 µM; GI50 (HCT-116): > 100 µM (inactive)

What does the source list for `CC1=C(C(=O)Nc2ccccc2C)C(c2ccc(Cl)c(Cl)c2)C(C(=O)Nc2ccccc2C)=C(C)N1`?
GI50 (RXF 393): 20.1 µM (inactive); GI50 (DMS-273): 16.7 µM (inactive); GI50 (RPMI-8226): 16.1 µM (inactive); GI50 (SK-MEL-28): 25.8 µM (inactive); GI50 (NCI-H23): 19.8 µM (inactive); GI50 (SF-268): 20.3 µM (inactive); GI50 (DLD-1): 27.9 µM (inactive); GI50 (XF498): 26.2 µM (inactive); GI50 (DMS-114): 17.4 µM (inactive); GI50 (NCI-H460): 15.8 µM (inactive); GI50 (UACC-257): 19.9 µM (inactive); GI50 (LXFL 529): 14.4 µM (inactive); GI50 (EKVX): 34.1 µM (inactive); GI50 (HOP-18): 22.9 µM (inactive); GI50 (HCT-15): 17.2 µM; GI50 (HCT-116): 16 µM (inactive)

With `COc1ccc(/C=c2/s/c(=C(\C#N)c3nc4ccccc4[nH]3)n(-c3ccccc3)c2=O)cc1` as the molecule, how does the GI50 (RXF 393) read?
Its GI50 is 36 µM (inactive).

And the GI50 (DMS-273)?
Its GI50 is 36.8 µM (inactive).

And the GI50 (T47D)?
Its GI50 is > 100 µM (inactive).

What about the GI50 (RPMI-8226) of the same molecule?
The GI50 was > 100 µM (inactive).

And the GI50 (SK-MEL-28)?
The GI50 was 48.2 µM (inactive).

And the GI50 (NCI-H23)?
The GI50 was 22.6 µM (inactive).

And the GI50 (SF-268)?
The GI50 was 31.7 µM (inactive).

What about the GI50 (DLD-1) of the same molecule?
Its GI50 is > 100 µM (inactive).

What about the GI50 (BT-549) of the same molecule?
The GI50 was 21 µM (inactive).

And the GI50 (XF498)?
The GI50 was 30.1 µM (inactive).

And the GI50 (DMS-114)?
Its GI50 is 91 µM (inactive).

And the GI50 (NCI-H460)?
The GI50 was 9.75 µM (inactive).

What about the GI50 (UACC-257) of the same molecule?
Its GI50 is > 100 µM (inactive).

And the GI50 (PC-3)?
The GI50 was 24 µM (inactive).

And the GI50 (LXFL 529)?
The GI50 was 2.32 µM (inactive).

And the GI50 (EKVX)?
Its GI50 is > 69.3 µM (inactive).

What about the GI50 (HOP-18) of the same molecule?
The GI50 was 25 µM (inactive).

What about the GI50 (HCT-15) of the same molecule?
The GI50 was > 53.6 µM.

And the GI50 (HCT-116)?
Its GI50 is 24.7 µM (inactive).

And the GI50 (Hs-578T)?
The GI50 was 4.45 µM (inactive).

Which GI50 (RXF 393) does the source give for `COc1ccc2c(c1)c(=O)c1ccccc1n2/C=C/C(=O)O` here?
The GI50 was > 79.4 µM (inactive).

What about the GI50 (DMS-273) of the same molecule?
The GI50 was > 41.3 µM (inactive).

And the GI50 (RPMI-8226)?
Its GI50 is > 100 µM (inactive).

What about the GI50 (SK-MEL-28) of the same molecule?
The GI50 was > 100 µM (inactive).

And the GI50 (NCI-H23)?
The GI50 was > 100 µM (inactive).

And the GI50 (SF-268)?
The GI50 was > 68.2 µM (inactive).

And the GI50 (DLD-1)?
The GI50 was > 47 µM (inactive).

And the GI50 (XF498)?
The GI50 was > 100 µM (inactive).

And the GI50 (DMS-114)?
Its GI50 is > 83.6 µM (inactive).

And the GI50 (NCI-H460)?
The GI50 was > 100 µM (inactive).

What about the GI50 (UACC-257) of the same molecule?
Its GI50 is > 100 µM (inactive).

And the GI50 (LXFL 529)?
The GI50 was > 100 µM (inactive).

And the GI50 (EKVX)?
The GI50 was > 100 µM (inactive).

And the GI50 (HOP-18)?
The GI50 was > 100 µM (inactive).

And the GI50 (HCT-15)?
Its GI50 is > 100 µM.

What about the GI50 (HCT-116) of the same molecule?
Its GI50 is > 100 µM (inactive).
